{"source": "paper PMC12209990", "about": "“Effect of Cytochrome P450 3A Inhibition and Induction by Itraconazole and Rifampin on Tazemetostat Pharmacokinetics in Patients With Advanced Malignancies” (Clinical Pharmacology in Drug Development, 2025)", "key": {"[1]": {"test": "Phase I DDI study Part 1: tazemetostat plasma PK alone and with itraconazole (noncompartmental analysis)", "assay_type": "in vivo, human", "source_text": "This was a Phase I, multicenter, open‐label, 2‐part study encompassing a fixed‐sequence design that aimed to characterize the PK of tazemetostat when administered as single and twice‐daily oral doses alone or in combination with either itraconazole (Part 1) or rifampin (Part 2). Secondary objectives were to evaluate the safety profile of tazemetostat when coadministered with either itraconazole (Part 1) or rifampin (Part 2).\nPart 1 of the study evaluated the DDI between tazemetostat and itraconazole. On the mornings of Days 1 and 15, patients received a single dose of tazemetostat 400 mg orally. On Days 3‐14, patients received tazemetostat 400 mg twice daily (morning and evening). On Days 18‐20, patients received itraconazole 200 mg orally once daily in the morning. On Days 21‐35, tazemetostat 400 mg twice daily was coadministered in the morning with a single dose of itraconazole 200 mg. On Day 36, patients received a single dose of tazemetostat 400 mg coadministered in the morning with a single dose of itraconazole 200 mg. On Days 37 and 38, patients received a single dose of itraconazole 200 mg (Figure 1A). Throughout Part 1, administration of itraconazole occurred 1 hour after a meal.\nIn Part 1, plasma concentrations of tazemetostat following tazemetostat dosing on Days 1, 15, 21, and 36 were quantified for PK analyses before dosing (0 hour), and at 0.5, 1, 1.5, 2, 4, 6, 8, 12, 24 (Days 21‐22), 36, 48 (Days 1‐3), and up to 72 hours after dosing (Days 15‐18 and Days 36‐39).\nPlasma concentrations of tazemetostat, over the ranges of 1.00‐2000 ng/mL, were quantified by a fully validated liquid chromatography with tandem mass spectrometric detection analytical method. Samples that had no detectable peak or had the calculated concentration <1.00 ng/mL were reported as below the lower limit of quantification. Tazemetostat analysis consisted of protein precipitation extraction and separation using mobile phases of 100 mM ammonium formate/water (1:9 v/v) (mobile phase A) and 100 mM ammonium formate/acetonitrile (1:9 v/v) (mobile phase B). Detection was achieved using an API‐5500 mass spectrometer (AB Sciex) using electrospray ionization (positive‐ion mode) in the multiple reaction monitoring mode. The multiple reaction monitoring mode m/z transitions monitored were […] for tazemetostat and the dwell time was set at 300 milliseconds.\nPlasma concentration‐time data for tazemetostat were analyzed by noncompartmental analysis using the validated software program Phoenix WinNonlin Professional Version 8.3 (Certara Inc., Mountain View, CA)."}, "[2]": {"test": "Safety (TEAEs) Part 2: tazemetostat coadministered with rifampin", "experimental": "Part 2 of the study evaluated the DDI between tazemetostat and rifampin. On the mornings of Days 1 and 15, patients received a single dose of tazemetostat 800 mg orally. On Days 3‐14, patients received tazemetostat 800 mg twice daily. On Days 17‐23, patients received tazemetostat 800 mg twice daily, coadministered in the morning with a single dose of rifampin 600 mg orally. On the morning of Day 24, patients received a single dose of tazemetostat 800 mg coadministered with rifampin 600 mg. On the morning of Day 25, patients received rifampin 600 mg (Figure 1B). Throughout Part 2, administration of rifampin occurred 1 hour before a meal.\nSafety was assessed by monitoring treatment‐emergent adverse events (TEAEs) and vital signs, electrocardiography, and clinical laboratory tests. TEAEs were defined as adverse events that started or worsened in severity on or after the date of the first dose of the study drug through 30 days after the last dose. Treatment‐related TEAEs were summarized by each study drug for both study parts. Adverse events were coded using the Medical Dictionary for Regulatory Activities Version 23.1 and graded per Common Terminology Criteria for Adverse Events Version 5.0."}, "[3]": {"design": "method as in PMID 29473431, PMID 38520556, PMID 33492746", "conditions": "doses of 200‐1600 mg twice daily; cited from earlier work"}, "[4]": {"tested_on": "CYP3A", "design": "method as in PMID 29473431, PMID 38520556, PMID 33492746", "conditions": "in vitro; cited from earlier work"}, "[5]": {"conditions": "single doses, Day 21/Day 1, compared with tazemetostat alone"}, "[6]": {"conditions": "twice‐daily dosing, steady state, Day 36/Day 15"}}, "note": "Like-named read-outs stand apart in the source and are kept apart here.", "data": [{"smiles": "CCN(c1cc(-c2ccc(CN3CCOCC3)cc2)cc(C(=O)NCc2c(C)cc(C)[nH]c2=O)c1C)C1CCOCC1", "note": "[Tazemetostat]", "values": [{"measurement": "AUC", "setting": "[1]; human, plasma, po, 400 mg, Part 1, tazemetostat 400 mg oral single dose alone, Day 1, plasma, read-out: AUC0‐12 h, mean (SD)", "value": 2460, "unit": "ng·h/mL"}, {"measurement": "AUC(0-t)", "setting": "[1]; human, plasma, po, 400 mg, Part 1, tazemetostat 400 mg oral single dose alone, Day 1, plasma, read-out: AUClast, GeoMean (CV%)", "value": 2640, "unit": "ng·h/mL"}, {"measurement": "AUC(0-t)", "setting": "[1]; human, plasma, po, 400 mg, Part 1, tazemetostat 400 mg oral single dose alone, Day 1, plasma, read-out: AUClast, mean (SD)", "value": 3250, "unit": "ng·h/mL"}, {"measurement": "Cmax", "setting": "[1]; human, plasma, po, 400 mg, Part 1, tazemetostat 400 mg oral single dose alone, Day 1, plasma, read-out: Cmax, GeoMean (CV%)", "value": 704, "unit": "ng/mL"}, {"measurement": "Cmax", "setting": "[1]; human, plasma, po, 400 mg, Part 1, tazemetostat 400 mg oral single dose alone, Day 1, plasma, read-out: Cmax, mean (SD)", "value": 803, "unit": "ng/mL"}, {"measurement": "half-life", "setting": "[1]; human, plasma, po, 400 mg, Part 1, tazemetostat 400 mg oral single dose alone, Day 1, plasma, read-out: t1/2, GeoMean (CV%) (converted)", "value": 358, "unit": "min"}, {"measurement": "half-life", "setting": "[1]; human, plasma, po, 400 mg, Part 1, tazemetostat 400 mg oral single dose alone, Day 1, plasma, read-out: t1/2, mean (SD) (converted)", "value": 368, "unit": "min"}, {"measurement": "Tmax", "setting": "[1]; human, plasma, po, 400 mg, Part 1, tazemetostat 400 mg oral single dose alone, Day 1, plasma, read-out: tmax, median (range)", "value": 1.44, "unit": "h"}, {"measurement": "increase of tazemetostat exposure by itraconazole", "setting": "[1]; overall, single dose and steady state", "value": "two to three times"}, {"measurement": "increase of mean AUC0‐12h by itraconazole", "setting": "[1]; [5]", "value": 3.12, "unit": "fold"}, {"measurement": "increase of mean Cmax by itraconazole", "setting": "[1]; [5]", "value": 2.00, "unit": "fold"}, {"measurement": "increase of mean steady‐state AUC0‐12h by itraconazole", "setting": "[1]; [6]", "value": 2.47, "unit": "fold"}, {"measurement": "increase of mean steady‐state Cmax by itraconazole", "setting": "[1]; [6]", "value": 1.86, "unit": "fold"}, {"measurement": "Deaths resulting from TEAEs", "setting": "[2]; Part 2", "value": "no deaths"}, {"measurement": "Any TEAE Grade 3 or 4, patients", "setting": "[2]; human, in vivo", "value": "13 (61.9) n (%)"}, {"measurement": "Any TEAE leading to dose reduction, patients", "setting": "[2]; human, in vivo", "value": "2 (9.5) n (%)"}, {"measurement": "Any TEAE leading to study drug discontinuation, patients", "setting": "[2]; human, in vivo", "value": "0 n (%)"}, {"measurement": "Any TEAE leading to study drug interruption, patients", "setting": "[2]; human, in vivo", "value": "7 (33.3) n (%)"}, {"measurement": "Any TEAE, patients", "setting": "[2]; human, in vivo", "value": "21 (100.0) n (%)"}, {"measurement": "Any TESAE, patients", "setting": "[2]; human, in vivo", "value": "9 (42.9) n (%)"}, {"measurement": "Any treatment-related TEAE Grade 3 or 4, patients", "setting": "[2]; human, in vivo", "value": "7 (33.3) n (%)"}, {"measurement": "Any treatment-related TESAE, patients", "setting": "[2]; human, in vivo", "value": "1 (4.8) n (%)"}, {"measurement": "Grade 3/4 TEAE decreased lymphocyte count", "setting": "[2]; human, in vivo", "value": 9.5, "unit": "%"}, {"measurement": "TEAE anemia, frequency", "setting": "[2]; human, in vivo", "value": 23.8, "unit": "%"}, {"measurement": "TEAE constipation, frequency", "setting": "[2]; human, in vivo", "value": 23.8, "unit": "%"}, {"measurement": "TEAE cough, frequency", "setting": "[2]; human, in vivo", "value": 28.6, "unit": "%"}, {"measurement": "TEAE diarrhea, frequency", "setting": "[2]; human, in vivo", "value": 33.3, "unit": "%"}, {"measurement": "TEAE fatigue, frequency", "setting": "[2]; human, in vivo", "value": 42.9, "unit": "%"}, {"measurement": "TEAE nausea, frequency", "setting": "[2]; human, in vivo", "value": 23.8, "unit": "%"}, {"measurement": "Tazemetostat‐related Grade 3/4 TEAE acute kidney injury", "setting": "[2]; human, in vivo", "value": 4.8, "unit": "%"}, {"measurement": "Tazemetostat‐related Grade 3/4 TEAE alanine aminotransferase increased", "setting": "[2]; human, in vivo", "value": 4.8, "unit": "%"}, {"measurement": "Tazemetostat‐related Grade 3/4 TEAE anemia", "setting": "[2]; human, in vivo", "value": 9.5, "unit": "%"}, {"measurement": "Tazemetostat‐related Grade 3/4 TEAE aspartate aminotransferase", "setting": "[2]; human, in vivo", "value": 4.8, "unit": "%"}, {"measurement": "Tazemetostat‐related Grade 3/4 TEAE diarrhea", "setting": "[2]; human, in vivo", "value": 4.8, "unit": "%"}, {"measurement": "Tazemetostat‐related Grade 3/4 TEAE syncope", "setting": "[2]; human, in vivo", "value": 4.8, "unit": "%"}, {"measurement": "Treatment-related TEAE Grade 3 or 4, related to the named study drug, patients", "setting": "[2]; human, in vivo", "value": "7 (33.3) n (%)"}, {"measurement": "Treatment-related TEAEs, related to the named study drug, patients", "setting": "[2]; human, in vivo", "value": "16 (76.2) n (%)"}, {"measurement": "Treatment-related TESAE, related to the named study drug, patients", "setting": "[2]; human, in vivo", "value": "1 (4.8) n (%)"}, {"measurement": "Any TEAE, patients", "setting": "[2]; in vivo", "value": "all patients"}, {"measurement": "dose proportionality of systemic exposure", "setting": "[3]", "value": "approximately dose proportional"}, {"measurement": "metabolism by CYP3A", "setting": "[4]", "value": "mainly metabolized by cytochrome P450 (CYP), family 3, subfamily A (CYP3A)"}]}]}
